Where two headings read alike, the source gives them in different places.
How the values were obtained:
[1] = test system: β-catenin-dependent Wnt-pathway; test: TopFlash luciferase reporter assay, CHIR99021-stimulated, HCC1395; assay type: cell-based; settings: for Emax / IC50: Homo sapiens, HCC1395, HCC1395; for Emax: read-out: HCC1395 TopFlash Efficacy; for IC50: read-out: HCC1395 TopFlash IC50; for TopFlash activity in words: CHIR99021; for GSK HCC1395 Comments: Table S2
Text: Both stimulations abolish formation of the destruction complex, a multiprotein complex consisting of Axin, adenomatous polyposis coli (APC), glycogen synthase kinase three beta (GSK3β), and casein kinase one alpha (CK1α). Upon inactivation of the complex, β-catenin accumulates in the cytoplasm and translocates into the nucleus where it interacts with transcription factors. These downstream events are quantified by a Luciferase transcription-based readout assay (TopFlash assay).

in vitro = settings: human, HCC1395 Cytotoxicity IC50
Method: (§1) The simplicity of the scaffold combined with synthetic accessibility allows building a library of compounds and performing structure activity relationship (SAR) studies of the three main parts of the molecule: the top part, the linker and the core (Figure 2).
(§2) The synthesized compounds were used to explore SAR of three defined areas of investigation (Figure 2). All compounds were tested in the HCC1395 TNBC cell line using the GSK3β inhibitor to induce β-catenin signaling since 4a acted downstream of GSK3β (Figure 2). Both inhibition of β-catenin signaling measured by the TopFlash reporter and cytotoxicity measured by the Renilla reporter were assessed.
(§3) The Wnt3a or CHIR99021-stimulated luciferase activity in HCC1395 TNBC cell line stably transfected with the TopFlash reporter was analyzed essentially as described for the BT-20 TNBC cell line ([Shaw et al., 2019b]; [Koval et al., 2021]). Reporter cells were seeded at 10,000 cells/well in a white opaque 384-well plate in the final volume of 20 μl of DMEM medium supplemented with 10% FCS. The cells were maintained incubated at 37°C, 5% CO2 overnight for attachment. Subsequently, they were transfected by a plasmid encoding constitutively expressed Renilla luciferase under the CMV promoter overall as described in the manufacturer’s protocol using 12 μg/ml of DNA and 40 μl/ml XtremeGENE nine reagent. The next day, the medium in each well was replaced with a 10 μl of fresh medium containing compound of interest, and, after 1 h of preincubation with the compounds, additional 10 μl of medium supplemented with Wnt3a [purified as described ([Willert et al., 2003]; [Koval and Katanaev, 2011])] or CHIR99021 were added creating respective final concentrations of 2.5 μg/ml or 5 μM of each. In case of other signal transduction reporters, no additional stimulation was performed. Compound dilutions were prepared by serial dilution in DMSO and diluted with the amount of medium necessary to obtain their final concentrations indicated on the figures and tables and maintain concentration of DMSO of 0.5% in all assay points. After overnight incubation, the supernatant in each well was removed, and the luciferase activity was measured as described ([Dyer et al., 2000]; [Huber et al., 2021]; [Pellissier et al., 2021]). The culture medium was completely removed from all wells of the plate. Finally, the luciferase activity of the firefly and Renilla luciferases was detected sequentially in individual wells of a 384-well plate through injection of corresponding measurement solutions and immediate reading (400 ms integration time) in Infinite M Plex multifunctional plate reader with injection module.

BT-20 TNBC cell line = test: MTT survival assay BT-20; assay type: cell-based; settings: Homo sapiens, BT-20; Table S2; read-out: MTT BT-20 IC50
Method: (§4) Indicated TNBC cell lines were detached and resuspended at 120,000 cells/ml and added into each well of a transparent 384-well plate in the final volume of 20 µl/well. The cells were maintained in DMEM containing 10% FBS at 37°C, 5% CO2 overnight. Next day, the medium in each well was replaced by 40 μl of the fresh one containing the indicated concentrations of compounds. In case of drug combination experiments, each compound dilution was delivered in corresponding well in 20 μl of medium. […] After incubation for 3–4 days, depending on the cell line, the medium in each well was replaced by 25 μl of 0.5 mg/ml Thiazolyl blue solution in 1xPBS following by incubation for 3 h at 37°C. Then the solution was removed and 25 μl DMSO was added into each well. Absorbance at 510 nm was measured in a Tecan Infinite M200 PRO plate reader.

HCC1395 TNBC cell line = test: MTT survival assay HCC1395; assay type: cell-based; settings: Homo sapiens, HCC1395; Table S2; read-out: MTT HCC-1395 IC50
Method: as §4

[2] = test system: MDA-MB-231 TNBC cell line; test: MTT survival assay MDA-MB-231; assay type: cell-based; settings: for IC50: Homo sapiens, MDA-MB-231
Method: as §4

HCC1806 TNBC cell line = test: MTT survival assay HCC1806; assay type: cell-based; settings: for IC50: Homo sapiens, HCC1806
Method: as §4

[3] = test system: MDA-MB-468 TNBC cell line; test: MTT survival assay MDA-MB-468; assay type: cell-based; settings: Homo sapiens, MDA-MB-468; Table S2
Method: as §4

[4] = test system: non-cancerous breast epithelial cell line MCF10a; test: MTT survival assay MCF10a; assay type: cell-based; settings: Homo sapiens, MCF-10A
Method: as §4

HCC1395 cells = test: in vitro; settings: for HCC1395 Cytotoxicity Efficacy: human
Method: as §1, §2, §3

[5] = stimulation with CHIR99021 (GSK3β inhibitor)
[6] = Table S2, read-out: MTT MDA-MB-231 IC50
[7] = Table S2, read-out: MTT HCC1806 IC50
[8] = Table S2, read-out: MTT MCF10 IC50

With COc1ccccc1CNc1ncnc2sccc12 [Compound 4b, N-(2-methoxybenzyl)thieno[2,3-d]pyrimidin-4-amine] as the molecule, how does the “HCC1395 TopFlash Efficacy” value ([1]; HCC1395, stimulation with CHIR99021 (GSK3β inhibitor)) read?
The value was 40.7 ± 3.1%.

And the Emax [1, 5]?
Its Emax is 40.7%.

What about the IC50 [1, 5] of the same molecule?
The IC50 was 2.79 ± 0.67 µM.

What about the “fold improvement in the activity compared to 4a” value ([1]; TopFlash IC50 vs 4a) of the same molecule?
Its value is 3 fold.

What about the IC50 (in vitro) of the same molecule?
The IC50 was greater than 50 µM.

What about the IC50 (BT-20 TNBC cell line) of the same molecule?
The IC50 was greater than 50 µM.

And the IC50 (HCC1395 TNBC cell line)?
Its IC50 is 8.17 µM.

And the IC50 ([2]; Figure 3B heatmap, read-out: IC50, μM (MDA-MB-231))?
Its IC50 is greater than 10 µM.

What about the IC50 [2, 6] of the same molecule?
Its IC50 is greater than 50 µM.

And the IC50 (HCC1806 TNBC cell line; [7])?
The IC50 was greater than 50 µM.

And the “MTT HCC1806 Comments” value (HCC1806 TNBC cell line; Table S2)?
Its value is “Inactive”.

What about the IC50 [3] of the same molecule?
Its IC50 is 11.8 µM.

What about the IC50 ([4]; Figure 3B heatmap, read-out: IC50, μM (MCF10)) of the same molecule?
The IC50 was greater than 10 µM.

What about the IC50 [4, 8] of the same molecule?
The IC50 was 33.2 µM.

Which “TopFlash activity in words” value ([1]; HCC1395) does the source give for COc1ccc(CNc2ncnc3sccc23)cc1 [Compound 4d, N-(4-methoxybenzyl)thieno[2,3-d]pyrimidin-4-amine] here?
The value was “abrogated the activity”.

What about the IC50 [1, 5] of the same molecule?
Its IC50 is greater than 50 µM.

And the “GSK HCC1395 Comments” value [1]?
Its value is “Inactive”.

What about the IC50 (BT-20 TNBC cell line) of the same molecule?
The IC50 was 39.8 µM.

What about the IC50 (HCC1395 TNBC cell line) of the same molecule?
Its IC50 is greater than 50 µM.

What about the IC50 [2, 6] of the same molecule?
The IC50 was greater than 50 µM.

What about the “MTT MDA-MB-231 Comments” value ([2]; Table S2) of the same molecule?
The value was “Inactive”.

What about the IC50 (HCC1806 TNBC cell line; Figure 3B heatmap, read-out: IC50, μM (HCC1806)) of the same molecule?
Its IC50 is greater than 50 µM.

And the IC50 (HCC1806 TNBC cell line; [7])?
Its IC50 is 46.5 µM.

What about the IC50 [3] of the same molecule?
The IC50 was 14.2 µM.

And the IC50 [4, 8]?
The IC50 was greater than 50 µM.

What does the source list for Fc1ccccc1CNc1ncnc2sccc12 [Compound 4e, N-(2-fluorobenzyl)thieno[2,3-d]pyrimidin-4-amine]?
GSK HCC1395 Comments [1]: Toxic; IC50 (in vitro): 7.45 ± 2.08 µM; Cytotoxicity (Renilla) in words (HCC1395 cells): toxicity

Which IC50 [1, 5] does the source give for Fc1cccc(CNc2ncnc3sccc23)c1 [Compound 4f, N-(3-fluorobenzyl)thieno[2,3-d]pyrimidin-4-amine] here?
Its IC50 is greater than 50 µM.

What about the “GSK HCC1395 Comments” value [1] of the same molecule?
The value was “Inactive”.

Which results are given for Clc1ccccc1CNc1ncnc2sccc12 [Compound 4h, N-(2-chlorobenzyl)thieno[2,3-d]pyrimidin-4-amine]?
GSK HCC1395 Comments [1]: Toxic; IC50 (in vitro): 8.61 ± 4.38 µM; HCC1395 Cytotoxicity Efficacy (HCC1395 cells): 67.1 ± 7.8%

With N#Cc1ccccc1CNc1ncnc2sccc12 [Compound 4k, 2-((thieno[2,3-d]pyrimidin-4-ylamino)methyl)benzonitrile] as the molecule, how does the IC50 [1, 5] read?
Its IC50 is greater than 50 µM.

And the “GSK HCC1395 Comments” value [1]?
The value was “Inactive”.

What does the source list for N#Cc1cccc(CNc2ncnc3sccc23)c1 [Compound 4l, 3-((thieno[2,3-d]pyrimidin-4-ylamino)methyl)benzonitrile]?
GSK HCC1395 Comments [1]: Toxic; IC50 (in vitro): 10 ± 3.36 µM; HCC1395 Cytotoxicity Efficacy (HCC1395 cells): 32.2 ± 10.5%

What does the source list for N#Cc1ccc(CNc2ncnc3sccc23)cc1 [Compound 4m, 4-((thieno[2,3-d]pyrimidin-4-ylamino)methyl)benzonitrile]?
TopFlash activity in words ([1]; HCC1395): abrogated the activity; IC50 [1, 5]: > 50 µM; GSK HCC1395 Comments [1]: Inactive; GSK HCC1395 Renilla Comments (HCC1395 cells): Non-toxic

For COc1cccc(C(C)Nc2ncnc3sccc23)c1 (stereo not drawn) [Compound 5b, N-(1-(3-methoxyphenyl)ethyl)thieno[2,3-d]pyrimidin-4-amine], which “TopFlash activity in words” value ([1]; HCC1395) is on record?
The value was “inactive”.

And the IC50 [1, 5]?
Its IC50 is greater than 50 µM.

And the “GSK HCC1395 Renilla Comments” value (HCC1395 cells)?
Its value is “Non-toxic”.

What does the source list for CC(Nc1ncnc2sccc12)c1ccc(F)cc1 (stereo not drawn) [Compound 5c, N-(1-(4-fluorophenyl)ethyl)thieno[2,3-d]pyrimidin-4-amine]?
Emax [1, 5]: 46.9 ± 8.41%; IC50 [1, 5]: 2.1 ± 1.64 µM; IC50 (in vitro): > 50 µM

What does the source list for Cc1ccc(C(C)Nc2ncnc3sccc23)cc1 (stereo not drawn) [Compound 5e, N-(1-(p-tolyl)ethyl)thieno[2,3-d]pyrimidin-4-amine]?
Emax [1, 5]: 47 ± 9.67%; IC50 [1, 5]: 0.63 ± 0.21 µM; IC50 (in vitro): > 50 µM
